Data reported in article PMC13185115, “Photovermellogens: Minimalistic Pyridinium-Based Acylhydrazones with Photoswitchable Basicity for Operation in Aqueous Media” (The Journal of Organic Chemistry, 2026).

Key:
[1] = Photoisomerization kinetics and quantum yields of the protonated forms (UV-vis); type: physicochemical; details: for k E-PH+ to Z-PH+ photoisomerization: pH 6 (pH 5 for P bH·Cl); for Φ Z→E photoisomerization quantum yield: irradiation at 440 nm
Text: (§1) Photoisomerization studies were subsequently carried out in acidic medium (pH = pK a – 2) in order to assess the photoresponse of the protonated species. Under these conditions, the anticipated photoisomerization of the thermally stable E-P a–dH^+ species was investigated by UV–vis absorption spectroscopy under irradiation at 254 nm. […] It is noteworthy that the irradiation wavelength can be extended to 365 nm, yielding virtually the same observations as for 254 nm irradiation (see footnotes of Table ). Irradiation also produced clear NMR spectral changes that support the occurrence of the E→Z isomerization. In essence, the signals Hf–h of the phenyl moiety were only slightly affected, whereas those of the pyridinium and acylhydrazone fragments shifted markedly, consistent with the formation of an intramolecular hydrogen bond in the Z-P a–cH^+ species. The reverse Z→E transformation of the protonated forms P a–cH^+ was also achieved upon irradiation at λ > 420 nm, giving lower quantum yields and less favorable PSDs (Figures S145–S147, S149–154, S1).
5. Isomerization Photochemical Data.
5.1. E-P a-cH+→Z-P a-cH+ photoisomerization kinetics.
(§2) Figure S138. Left: variations in the absorption spectrum of P aH·Cl (20.6 µM, pH = 6) upon irradiation at 254 nm; the absorption spectrum of the E-form is shown in red; the photostationary state is in blue. Right: Kinetics (monitored at 320 nm) for the E-P aH+ to Z-P aH+ photoisomerization (20.6 µM) upon irradiation at 254 nm (I 0 = 1.37 × 10 –7 mol/s); k = 1.55 × 10 –2 […]
as §2, with “S139.” for “S138.”, “(17.5” for “(20.6”, “365” for “254”, “400” for “320”, “2.6” for “1.37”, “6.4” for “1.55”
Figure S140. Left: variations in the absorption spectrum of P bH·Cl (7.9 µM, pH = 5) upon […]
state is in blue. Right: Kinetics (monitored at 370 nm) for the E-P bH+ to Z-P bH+ photoisomerization (7.9 µM) upon irradiation at 254 nm (I 0 = 1.41 × 10 –7 mol/s); k = 4.91 × 10 –2 […]
Figure S141. Left: variations in the absorption spectrum of P bH·Cl (10 µM, pH = 5) upon […]
state is in blue. Right: Kinetics (monitored at 420 nm) for the E-P bH+ to Z-P bH+ photoisomerization (10 µM) upon irradiation at 365 nm (I 0 = 2.0 × 10 –7 mol/s); k = 3.0 × 10 –2 s–1.
Figure S142. Left: variations in the absorption spectrum of P cH·Cl (9 µM, pH = 6) upon […]
state is in blue. Right: Kinetics (monitored at 377 nm) of the E-P cH+ to Z-P cH+ photoisomerization […]
Figure S143. Left: variations in the absorption spectrum of P cH·Cl (10 µM, pH = 6) upon […]
state is in blue. Right: Kinetics (monitored at 410 nm) of the E-P cH+ to Z-P cH+ photoisomerization

[2] = Thermal Z-PH+ to E-PH+ back-isomerization kinetics; type: physicochemical
Text: as §1
5.5. Z-P a-cH+→E-P a-cH+ thermal back-isomerization kinetics.
Figure S155. Absorption spectrum variation during 48h at room temperature from the PSS reached for P aH·Cl (7µM, pH 6, Red) state during 48h. E-isomer absorption spectrum in green.
Even though the kinetics has not been fully completed, it can be observed that it occurs much more slowly than photochemical processes.
To obtain an estimation of P aH·Cl Z→E thermal half-live at room temperature, the Z →E thermal reversion kinetics were monitored starting from the 254nm photostationary state at different temperatures (47, 55 and 64 °C). By tracking the absorbance changes at 420 nm, an Arrhenius analysis was performed, allowing the determination of the activation energy (EA) and the estimation of the thermal half-life at 25 °C.

[3] = irradiation at 254 nm (I0 1.37–1.41 × 10–7 mol/s)
[4] = irradiation at 254 nm, pH 6, error ± 20%
[5] = irradiation at 365 nm (I0 2.0–2.6 × 10–7 mol/s)

## C[n+]1ccc(NN=CC(=O)c2ccccc2)c2ccccc21 [P bH^+]
[1]; [3]
  k E-PH+ to Z-PH+ photoisomerization: 4.91 10^–2 s^–1
[1]; [4]
  Φ E→Z photoisomerization quantum yield: 0.38
[1]; irradiation at 365 nm
  Φ E→Z photoisomerization quantum yield: 0.35
[1]; [5]
  k E-PH+ to Z-PH+ photoisomerization: 3.0 10^–2 s^–1
[1]; pH 6, error ± 20%
  Φ Z→E photoisomerization quantum yield: 0.002
[2]; heating to 70 °C, pD 5
  k Z→E unimolecular rate constant, thermal back-isomerization: 9.8 10^–4 s^–1

## C[n+]1ccc(-c2ccc(NN=CC(=O)c3ccccc3)cc2)cc1 [P dH^+]
[1]; irradiation at 254 nm, acidic medium pH = pKa – 2
  E→Z photoisomerization of the protonated form (UV-vis changes): no detectable changes

## O=C(C=NNc1cc[n+](-c2ccccc2)cc1)c1ccccc1 [P cH^+]
[1]; [3]
  k E-PH+ to Z-PH+ photoisomerization: 4.90 10^–2 s^–1
[1]; [4]
  Φ E→Z photoisomerization quantum yield: 0.34
[1]; irradiation at 365 nm
  Φ E→Z photoisomerization quantum yield: 0.34
[1]; [5]
  k E-PH+ to Z-PH+ photoisomerization: 2.0 10^–2 s^–1
[1]; pH 6, error ± 20%
  Φ Z→E photoisomerization quantum yield: 0.008
[2]; heating to 70 °C, pD 6
  k Z→E unimolecular rate constant, thermal back-isomerization: 2.4 10^–4 s^–1

## C[n+]1ccc(NN=CC(=O)c2ccccc2)cc1 [P aH^+]
[1]; [3]
  k E-PH+ to Z-PH+ photoisomerization: 1.55 10^–2 s^–1
[1]; [4]
  Φ E→Z photoisomerization quantum yield: 0.20
[1]; irradiation at 365 nm
  Φ E→Z photoisomerization quantum yield: 0.22
[1]; [5]
  k E-PH+ to Z-PH+ photoisomerization: 6.4 10^–2 s^–1
[1]; pH 6, error ± 20%
  Φ Z→E photoisomerization quantum yield: 0.001
[2]; heating to 60 °C, pD 6
  k Z→E unimolecular rate constant, thermal back-isomerization: 4.1 10^–4 s^–1
